Reference: patent US11390884B2, “Optimized CRISPR/cas9 systems and methods for gene editing in stem cells” (Editas Medicine, Inc., priority 2015, dated 2022)
Read-outs that look alike come from different tables or passages of the source. Peptide text beside a SMILES is read from it. * marks the point of attachment. Cbz = O=C(OCc1ccccc1)*

Key:
human CB CD34^+ HSCs [1] = experiment: Flow cytometry viability and stem cell phenotype of electroporated cord blood CD34+ cells
Protocol: (§1) For all samples, the cells were collected from the cartridge and placed at 37° C. for 20 minutes (recovery period). […] For the cold shocked samples, the cells were transferred to the 37° C. incubator after the 2-hour incubation period at 30° C.
(§2) For all samples, the cells were collected from the cartridge and placed at 37° C. for 20 minutes (recovery period). For the CB CD34^+ cells that were contacted with 10 μg D10A nickase RNP (per million cells), one sample was transferred to pre-warmed cytokine supplemented Stemspan-SFEM™ media and placed at 30° C. for 2 hours (cold shock recovery) or placed directly into the same media at 37° C. For the cold shocked samples, the cells were transferred to the 37° C. incubator after the 2-hour incubation period at 30° C.
(§3) CB CD34^+ cells were pre-treated with each of these stem cell viability enhancers (Table 19) for 18 hours prior to electroporation with D10A Cas9 RNP, HBB-8 and HBB-15 modified gRNAs, and 5′ and 3′ phosphorothioate-modified ssODN donor template. After electroporation, cells were replated into HSC medium containing these stem cell viability enhancers and cultured for an additional 3 days.

HBB locus = experiment: Gene editing at the HBB locus in cord blood CD34+ HSCs (T7E1, DNA sequencing); format: cell-based, human; conditions: CB CD34+, enhancer 18 hours before and 3 days after electroporation with D10A Cas9 RNP, HBB-8/HBB-15, Phx ssODN, UM171 35 nM, UM171/SR-1 35/40 nM, rapamycin 5 nM, OxPAPC 30 μg/mL, bafilomycin A1 1 μM, MG132 0.5 μM
Excerpt: Human CD34^+ HSCs cells were isolated from freshly obtained human umbilical cord blood by ficoll gradient density centrifugation followed by MACS® (antibody conjugated immunomagnetic bead sorting) with mouse anti-human CD34^+ immunomagnetic beads using the human CD34 cell enrichment kit and LS magnetic columns from Miltenyi Biotech. […] In the afternoon of day 3, 2.5 million CD34^+ cells per sample were suspended in electroporation buffer.
In vitro transcribed capped and tailed guide gRNAs HBB-8 and HBB-15 were added at a 2:1 molar ratio (total gRNA:Cas9 protein) to 12.5 μg D10A nickase ribonucleoprotein (RNP) (5 μg RNP per million cells) to each of two samples each containing 2.5 million CB CD34^+ cells. A third CB CD34^+ cell aliquot was mixed with 25 μg D10A nickase RNP and HBB gRNAs (total gRNA:D10A ratio at 2:1).
For all samples, the cells were collected from the cartridge and placed at 37° C. for 20 minutes (recovery period). For the CB CD34^+ HSCs that were contacted with 12.5 μg D10A nickase RNP, one sample was transferred to pre-warmed cytokine supplemented Stemspan-SFEM™ media and placed at 30° C. for 2 hours (cold shock samples) or placed directly into the same media at 37° C. For the cold shocked samples, the cells were transferred to the 37° C. incubator after the 2-hour incubation period at 30° C. […] Genomic DNA was extracted from the HSCs at 48 and 72 hours after electroporation and HBB locus-specific PCR reactions were performed. The purified PCR products were analyzed for insertions/deletions (indels) in T7E1 assays and by DNA sequencing of individual clones (PCR product was transformed and subcloned into TOPO-vector, individual colonies picked, and plasmid DNA containing individual PCR products were sequenced).
Gene editing at the HBB locus was then evaluated at 72 hours after electroporation of D10A nickase RNP co-delivered with 2 gRNAs (HBB-8 and HBB-15). Briefly, gDNA was isolated from electroporated CD34^+ cells at 72 hours after electroporation, and PCR amplification of a ˜607 bp fragment of the HBB locus (which captures both of the individual genomic locations that were targeted by gRNAs HBB-8 and HBB-15) was performed. After cleanup of the HBB PCR product with AMPURE beads, insertions/deletions (indels) at the targeted genomic location were evaluated by T7E1 assay and by DNA sequencing.
Human CD34^+ HSCs cells were isolated from freshly obtained human umbilical cord blood by ficoll gradient density centrifugation followed by MACS sorting with mouse anti-human CD34^+ immunomagnetic beads. […] In the afternoon of day 3, 2.2 million CD34^+ cells per sample were suspended in electroporation buffer.
In vitro transcribed capped and tailed guide gRNAs HBB-8 and HBB-15 were added at a 2:1 molar ratio (total gRNA:Cas9 protein) to 10 μg RNP per million cells.
For all samples, the cells were collected from the cartridge and placed at 37° C. for 20 minutes (recovery period).

[2] = tested on: human mobilized peripheral blood CD34^+ HSCs; experiment: Hematopoietic colony forming cell (CFC) assay in Methocult; format: cell-based; conditions: wild-type Cas9 and CCR5-U43 gRNA plasmid DNA; 40 nM UM171; two weeks
Excerpt: […]; 345(6203):1509-1512). […] […].
To evaluate maintenance of HSC potency and differentiation potential, two weeks after plating CD34^+ HSCs in CFC assays, hematopoietic activity was quantified based on scoring the HSC progeny by enumerating the total number of hematopoietic colony forming units (CFU) and the frequencies of specific blood cell phenotypes, including: mixed myeloid/erythroid (Granulocyte-erythroid-monocyte macrophage, CFU-GEMM), myeloid (CFU-macrophage (M), granulocyte-macrophage (CFU-GM)) and erythroid (CFU-E) colonies. […].
To evaluate maintenance of HSC potency and differentiation potential, two weeks after plating CD34^+ HSCs in CFC assays, hematopoietic activity was quantified based on scoring the HSC progeny by enumerating the total number of hematopoietic colony forming units (CFU) and the frequencies of specific blood cell phenotypes, including: mixed myeloid/erythroid (Granulocyte-erythroid-monocyte macrophage, CFU-GEMM), myeloid (CFU-macrophage (M), granulocyte-macrophage (CFU-GM)) and erythroid (CFU-E) colonies. […]. […] After Nucleofection™, cells were replated into Stemspan-SFEM supplemented with SCF, TPO, FL and UM171. After overnight incubation, HSCs were replated in Stemspan-SFEM™ plus cytokines alone without UM171.
To evaluate maintenance of HSC potency and differentiation potential, two weeks after plating CD34^+ HSCs in CFC assays, hematopoietic activity was quantified based on scoring the HSC progeny by enumerating the total number of hematopoietic colony forming units (CFU) and the frequencies of specific blood cell phenotypes, including: mixed myeloid/erythroid (Granulocyte-erythroid-monocyte macrophage, CFU-GEMM), myeloid (CFU-macrophage (M), granulocyte-macrophage (CFU-GM)) and erythroid (CFU-E) colonies. CD34^+ HSCs that were Nucleofected™ CD34^+ HSCs maintained CFC potential compared to un-Nucleofected™ HSCs (Table 14).

[3] = tested on: human mobilized peripheral blood CD34^+ HSCs; conditions: Nucleofection with wild type Cas9 and CCR5-U43 gRNA plasmid DNA; short-term 40 nM UM171
human CB CD34^+ HSCs [4] = tested on: human CB CD34^+ HSCs
Protocol: as §1, §2, §3

[5] = Homo sapiens, read-out: % Viability of CD34^+ stem cells

| Compound | improvement in viability versus electroporated cells without pre-treatment (human CB CD34^+ HSCs [1]; CB CD34+, OxPAPC 30 μg/mL pre-treatment 18 hours) [%] | % Viability of CD34^+ stem cells (human CB CD34^+ HSCs [1]; CB CD34+, enhancer 18 hours before and 3 days after electroporation with D10A Cas9 RNP, HBB-8/HBB-15, Phx ssODN, UM171 35 nM, UM171/SR-1 35/40 nM, rapamycin 5 nM, OxPAPC 30 μg/mL, bafilomycin A1 1 μM, MG132 0.5 μM) [%] | % HDR (HBB locus) [%] | % NHEJ (HBB locus) [%] | % Total Gene Editing (HBB locus) [%] | Number of colony forming units, E (erythroid) [2] | Number of colony forming units, G [2] | Number of colony forming units, GEMM [2] | Number of colony forming units, GM [2] | Number of colony forming units, M [2] | Number of colony forming units, Total [2] | Fold-change in the number of live CD34^+ HSCs (96 hours) [3] | viability at 0.5 µM (human CB CD34^+ HSCs [1]; [5]) [%] | % Viability of CD34^+ stem cells (human CB CD34^+ HSCs [4]) [%] | viability at 0.005 µM (human CB CD34^+ HSCs [1]; [5]) [%] |
| --- | --- | --- | --- | --- | --- | --- | --- | --- | --- | --- | --- | --- | --- | --- | --- |
| oxidized 1-palmitoyl-2-arachidonyl-sn-glycero-3-phosphorylcholine [OxPAPC, reference compound] | 20 | 64 | 7 | 71 | 78 | – | – | – | – | – | – | – | – | – | – |
| Cn1nnc(-c2ccc3c(c2)[nH]c2nc(Cc4ccccc4)nc(N[C@H]4CC[C@H](N)CC4)c23)n1 [UM171, (1r,4r)-N1-(2-benzyl-7-(2-methyl-2H-tetrazol-5-yl)-9H-pyrimido[4,5-b]indol-4-yl)cyclohexane-1,4-diamine] | – | – | 0 | 79 | 79 | 92 colony forming units per 1500 CD34^+ HSCs plated | 40 colony forming units per 1500 CD34^+ HSCs plated | 20 colony forming units per 1500 CD34^+ HSCs plated | 32 colony forming units per 1500 CD34^+ HSCs plated | 64 colony forming units per 1500 CD34^+ HSCs plated | 228 colony forming units per 1500 CD34^+ HSCs plated | 1.5 | – | – | – |
| CC(C)C[C@@H](C=O)NC(=O)[C@H](CC(C)C)NC(=O)[C@H](CC(C)C)NC(=O)OCc1ccccc1 [MG132, benzyl (S)-4-methyl-1-((S)-4-methyl-1-((S)-4-methyl-1-oxopentan-2-ylamino)-1-oxopentan-2-ylamino)-1-oxopentan-2-ylcarbamate, reference compound] (Cbz-Leu-Leu-Leu-aldehyde) | – | – | 0 | 0 | 0 | – | – | – | – | – | – | – | 19 | – | – |
| CO/C1=C\C(C)=C\[C@@H](C)[C@@H](O)[C@@H](C)C/C(C)=C/C=C/[C@H](OC)[C@@H]([C@@H](C)[C@@H](O)[C@H](C)[C@@]2(O)C[C@@H](O)[C@H](C)[C@@H](C(C)C)O2)OC1=O [Bafilomycin A1, reference compound] | – | – | 0 | 18 | 18 | – | – | – | – | – | – | – | – | 23 | – |
| CO[C@H]1C[C@@H]2CC[C@@H](C)[C@@](O)(O2)C(=O)C(=O)N2CCCC[C@H]2C(=O)O[C@H]([C@H](C)C[C@@H]2CC[C@@H](O)[C@H](OC)C2)CC(=O)[C@H](C)/C=C(\C)[C@@H](O)[C@@H](OC)C(=O)[C@H](C)C[C@H](C)/C=C/C=C/C=C/1C [Rapamycin (sirolimus), Rapamycin, reference compound] | – | – | 7 | 46 | 53 | – | – | – | – | – | – | – | – | – | 52 |
